From patent publication US20240398843A1, “GLYCYRRHIZIN-BRANCHED POLYETHYLENE GLYCOL CONJUGATE FOR TREATING CANCER” (IUCF-HYU (INDUSTRY-UNIVERSITY COOPERATION FOUNDATION …, priority 2021, published 2024)

Experiments:
[1] = Dynamic light scattering (DLS) particle size, incl. shielding effect check in 10% FBS DW; assay type: physicochemical; details: for DLS size, first listed population / DLS size, second listed population / proportion of first listed population / proportion of second listed population: 10% FBS DW
Excerpt: When bPEG was conjugated, a stabilized nano size of approximately 300 nm was observed (FIG. 6).

red blood cells = test: In vitro blood hemolysis; details: 0.2 to 1 mg/mL, 37° C., 1 hour
Protocol: 1 to 2 mL of blood was put into a 2 mL tube, filled with PBS, and centrifuged at 3,000 rpm for 2 minutes. The supernatant was removed, the vial was filled again with PBS, and centrifuged, and this process was repeated 2 to 3 times. 20 μL of a red blood pellet was dispensed into a 1.5 mL tube. DW, for example, 80% DW/PBS, 60% DW/PBS, 40% DW/PBS, 20% DW/PBS, or PBS was added to a control without separate material treatment, and the volumes was adjusted to 1.5 mL. In the experimental group, 1 mL of a bPEG-GL (3.6 mg/mL, 2.88 mg/mL, 2.16 mg/mL, 1.44 mg/mL, 0.72 mg/mL; GL equivalent concentration) solution was added to each tube.
The tubes were left in a 37° C. water bath for 1 hour and then centrifuged at 800 rpm for 5 minutes.

HepG2 cells [2] = test: Wound healing assay; assay type: cell-based; details: HepG2, 500 μg/mL GL or GL equivalent, 24-hour culture
Protocol: HepG2 cells were seeded in a 6-well plate at 3×10^5 cells/well and cultured until 100% confluence. When the well was filled with cells, a wound was made by drawing a line in the center of the well using a 200 μL micropipette tip. The cells were washed with PBS, and treated with each of 500 μg/mL of GL, 500 μg/mL of bPEG-GL, which is a GL equivalent concentration, and a bPEG solution at the same amount of bPEG that dissolved in 500 μg/mL of bPEG-GL. After 24-hour culture, the width of the wound was confirmed. […] The cell migration rate was calculated according to Equation 1.
Rate of cell migration(RM)=(Wi−Wf)/t [Equation 1] • (Wi=initial wound width, Wf=final wound width, t=duration of migration)

HepG2 cells [3] = test: Cell cycle arrest assay (PI, FACS); assay type: cell-based; details: 24 hours
Protocol: HepG2 cells were seeded in a 6-well plate at 4×10^5 cells/well and cultured (3 wells for each treated group). The cells were classified into a control (con; untreated group), GL-treated groups (250 and 500 μg/mL), bPEG-GL-treated groups (GL equi 250 and 500 μg/mL), and a bPEG (GL equi 500 μg/mL)-treated group, treated with corresponding materials, and cultured for 24 hours. After the cells were recovered and counted, 1×10^6 cells were obtained for each experimental group. The cells were washed with PBS and fixed with 70% ethanol (cell membrane disruption). The cells were treated with 50 μL of ribonuclease A (100 μg/mL) and 200 μL of propidium iodide (PI; 50 μg/mL). The cells were washed and suspended in 500 μL of PBS, and then FACS was performed.

HepG2 cells [4] = test: Apoptosis assay (annexin V/PI, FACS); assay type: cell-based; details: 24 hours
Protocol: HepG2 cells were seeded in a 60 mm well plate at 2×10^5 cells/well and cultured (3 wells for each treatment group). The cells were classified as follows, treated with corresponding materials, and cultured for 24 hours: Control (con; untreated group), GL-treated groups (250, 500, and 1,000 μg/mL), bPEG-GL-treated groups (900, 1,800, and 3,600 μg/mL; GL equivalent concentrations of 250, 500, and 1,000 μg/mL), and bPEG-treated groups (1,300 and 2,600 μg/mL; bPEG-GL equivalent concentrations of 1,800 and 3,600 μg/mL).
After the culture, the medium was aspirated to remove the treated material, and the cells were washed twice with a cell-staining buffer. After the cells were recovered and counted, 5×10^5 cells were obtained for each experimental group. The cell culture solution was centrifuged to remove the supernatant, and then the cells were suspended in 100 μL of annexin V-binding buffer. The cell suspension was transferred to an FACS tube, and 5 μL of annexin V and 10 μL of PI solution were added. Subsequently, the FACS tube was left in a dark room at room temperature for 15 minutes. 400 μL of PBS was added to each FACS tube and analyzed by FACS in appropriate settings.

[5] = In vivo distribution (organ fluorescence, FOBI); details: FITC-labelled, tail vein, C57BL mouse
Protocol: Each of GL-FITC and bPEG-GL-FITC was dissolved in 1.5 mL of PBS at a concentration of 125 μg/mL based on GL. 100 μL each of the GL-FITC and bPEG-GL-FITC solutions was injected into the tail vein of a C57BL mouse. When a preset time (10 min, 30 min, 3 hr, 6 hr, and 24 hr) passed, the mice were sacrificed, organs were removed, and then fluorescence images were confirmed using FOBI.

[6] = In vivo pharmacokinetics (plasma, HPLC); details: intravenous, mouse, tail vein, 5 mg/kg GL
Protocol: 5 mg/kg of GL or 18 mg/kg of bPEG-GL (a GL equivalent amount of the GL-administered group) was injected into the tail vein of a mouse. The mouse was sacrificed at a designated time point after injection and blood was collected through cardiac puncture. The blood collection times were as follows: 1, 3, 5, 10, 30, 60, 120, 150, 360, 720, 1080, and 1440 min (n=4 at each time). The collected blood was centrifuged at 3000 rpm and 4° C. for 20 minutes. Only the plasma, which is the supernatant, was recovered, and 50 μL of the plasma and 100 μL of methyl alcohol (HPLC grade) were mixed and vortexed for 10 minutes. Afterward, the resulting product was centrifuged at 10000 g for 10 minutes. 100 μL of the supernatant was mixed with 900 μL of a mobile phase, and the resulting mixture was filtered using a 0.45 μm syringe filter.
The mobile phase consisted of methanol, acetonitrile, water, and acetic acid in a ratio of 55:23.7:19.2:0.68. The standard curve required for HPLC analysis was prepared as follows: each of 1 mg of GL and 1.8 mg of bPEG-GL was dissolved in 1 mL of the mouse serum. […] HPLC was performed on the blood samples and various concentrations of the GL/serum solutions using a C8 reverse column: flow rate: 1 mL/min; column temperature: 35° C.; UV absorbance: 251 nm; and sample injection amount: 20 μL.

size by dynamic light scattering particle size analyzer [1]: 50 nm
DLS size, first listed population ([1]; 30 min): 159.7 nm
DLS size, second listed population ([1]; 30 min): 10.38 nm
proportion of first listed population ([1]; 30 min): 75.50%
proportion of second listed population ([1]; 30 min): 24.15%
DLS size, first listed population ([1]; 1 h): 54.5 nm
DLS size, second listed population ([1]; 1 h): 295.03 nm
proportion of first listed population ([1]; 1 h): 47.83%
proportion of second listed population ([1]; 1 h): 31.06%
size of newly observed particles ([1]; DW with 10% FBS, after 1 hour): approximately 300 nm
half-life [6]: ~4 min
SMILES: CC1(C)[C@@H](O[C@H]2O[C@H](C(=O)O)[C@@H](O)[C@H](O)[C@H]2O[C@@H]2O[C@H](C(=O)O)[C@@H](O)[C@H](O)[C@H]2O)CC[C@]2(C)[C@H]3C(=O)C=C4[C@@H]5C[C@@](C)(C(=O)O)CC[C@]5(C)CC[C@@]4(C)[C@]3(C)CC[C@@H]12 [GL, Glycyrrhizin]
toxicity to blood cells (hemolysis) (red blood cells): did not exhibit toxicity to blood cells
width of wound / cell migration (HepG2 cells [2]): inhibitory effect on cell migration
cell cycle phase compared to control (HepG2 cells [3]; HepG2, 250 and 500 μg/mL (GL equivalent)): cell cycles remained in the G0/G1 phase compared to the control
concentration dependence of cell cycle arrest (HepG2 cells [3]; HepG2, 500 vs 250 μg/mL): higher cell cycle arrest effects at 500 μg/mL, compared to that at 250 μg/mL
proportion of apoptotic cells (HepG2 cells [4]; HepG2, GL equivalent concentration of 500 μg/mL): 9.63%
proportion of apoptotic cells (HepG2 cells [4]; HepG2, GL equivalent concentration of 1 mg/mL): 10.86%
organ fluorescence ([5]; 10 minutes after injection): fluorescence was visible in the liver and kidney
organ fluorescence ([5]; later time points up to 24 hr): no fluorescence was observed in the corresponding organs at later time points
